# Data published in patent US4970153A, “Method of producing acid urease and the use of the urease” (Nagase & Co., Ltd., priority 1987, dated 1990).
# Read-outs that look alike come from different tables or passages of the source.
# Experiments:
# [1] = molecular target: T1, acid-urease obtained by culturing Lactobacillus fermentum TK 1214 (Limosilactobacillus fermentum, UniProt P26929); assay: Substrate specificity of acid urease (colorimetric assay of ammonia formed); format: biochemical; conditions: substance used as substrate of acid urease
# T1 sequence (P26929 1-573): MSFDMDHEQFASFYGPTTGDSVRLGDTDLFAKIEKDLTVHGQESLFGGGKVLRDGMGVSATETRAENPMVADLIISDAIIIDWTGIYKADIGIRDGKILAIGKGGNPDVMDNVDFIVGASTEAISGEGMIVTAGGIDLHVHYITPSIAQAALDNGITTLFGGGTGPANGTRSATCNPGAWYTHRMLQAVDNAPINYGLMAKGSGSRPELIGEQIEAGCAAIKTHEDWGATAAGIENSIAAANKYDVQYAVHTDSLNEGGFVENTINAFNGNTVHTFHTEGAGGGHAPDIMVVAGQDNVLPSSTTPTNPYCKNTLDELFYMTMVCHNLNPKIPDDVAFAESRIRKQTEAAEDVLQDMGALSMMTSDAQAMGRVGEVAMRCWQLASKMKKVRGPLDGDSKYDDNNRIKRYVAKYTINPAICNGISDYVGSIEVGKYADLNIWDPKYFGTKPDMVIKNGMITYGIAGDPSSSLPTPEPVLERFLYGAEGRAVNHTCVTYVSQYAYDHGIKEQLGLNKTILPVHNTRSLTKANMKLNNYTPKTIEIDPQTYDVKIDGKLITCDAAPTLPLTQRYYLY
# T1 sequence (P26930 1-124 partner): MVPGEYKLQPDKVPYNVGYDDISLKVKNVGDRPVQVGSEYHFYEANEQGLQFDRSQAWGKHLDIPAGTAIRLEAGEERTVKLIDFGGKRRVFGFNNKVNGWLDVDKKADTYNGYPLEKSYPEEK
# T1 sequence (P26931 1-100 partner): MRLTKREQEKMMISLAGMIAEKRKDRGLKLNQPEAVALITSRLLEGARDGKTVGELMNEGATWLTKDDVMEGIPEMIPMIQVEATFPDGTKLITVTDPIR
# Procedure: (2) Substrate specificity:
# (§1) by Colorimetric assay of ammonia formed by reaction with urea.
# (§2) 0.1M acetate buffer (pH 4.0): 0.6 ml
# (§3) React at 37° C. for 10 minutes, add 0.2 ml of 1.0N H2 SO4 and stop the reaction. Take out a part of reaction solution and give coloring by Indophenol reagent. Measure the absorbance at 630 nm, and determine quantity of decomposed urea by assaying formed ammonia.
# (§4) 1 unit activity (I.U.) of acid-urease is quantity of enzyme which decomposes 1 μmole of urea at 37° C., pH 4.0 for one minute.
# [2] = molecular target: T1, acid-urease obtained by culturing Lactobacillus fermentum TK 1214; assay: Inhibition and activation of acid urease by additives; format: biochemical
# Procedure: (5) Inhibition and activation:
# as §1, §2, §3, §4
# [3] = molecular target: T1, acid-urease obtained by culturing Lactobacillus fermentum TK 1214; assay: Stabilization of acid urease by additives (treated at 65° C. for 10 minutes); format: biochemical; conditions: additive 1 mM, not added: 80
# Procedure: (6) Stabilization (treated at 65° C. for 10 minutes):
# as §1, §3
# [4] = molecular target: acid urease from Lactobacillus fermentum TK 1214 (Limosilactobacillus fermentum, UniProt P26929)
# [5] = molecular target: neutral urease from sword beans
relevant activity (%) [1],Relative activity (%) after heat treatment [3],SMILES,other results
0%,,C=CCNC(N)=O [Allylurea],
0%,,O=C(NO)c1ccccc1 [Benzohydroxamic acid],Relative activity (%) ([2]; additive 0.5 mM): 50%
0%,,CCCCCCCC(=O)NO [Caprilohydroxamic acid],Relative activity (%) ([2]; additive 0.04 mM): 50%
,100%,N[C@@H](CS)C(=O)O [Cysteine],Relative activity (%) ([2]; additive 1 mM): 100%
,100%,O[C@H](CS)[C@@H](O)CS [Dithioerithritol],
,100%,O[C@H](CS)[C@H](O)CS [Dithiothreitol],
,,CCO [Ethanol],Relative activity (%) [2]: 50%; Ki (inhibitor constant) value against ethanol [4]: about 40%; Ki (inhibitor constant) value against ethanol [5]: about 9%
0%,,CCNC(N)=O [Ethylurea],
0%,,NC(=O)NO [Hydroxyurea],
,100%,OCCS [Mercapto ethanol],Relative activity (%) ([2]; additive 1 mM): 100%
0%,,CNC(N)=O [Methylurea],
0%,,O=C(NO)c1cccnc1 [Nicotinhydroxamic acid],Relative activity (%) ([2]; additive 0.5 mM): 50%
100%,,NC(N)=O [Urea],
,,O=C([O-])c1cc[c]([Hg][Cl])cc1 [p-Chloromercuricbenzoate],Relative activity (%) ([2]; additive 0.05 mM): 50%

SMILES,relevant activity (%) [1],Relative activity (%) after heat treatment [3],other results
O=C(O)CN(CCN(CC(=O)O)CC(=O)O)CC(=O)O [EDTA-4Na],,100%,
N[C@@H](CCC(=O)N[C@@H](CS)C(=O)NCC(=O)O)C(=O)O [Glutathione],,100%,Relative activity (%) [2]: 100%
NO [Hydroxylamine],0%,,
NC(N)=S [Thiourea],0%,,
